The values that follow come from patent EP4631940A1, “COMPOUND TARGETING PAN-KRAS PROTEIN DEGRADATION AGENT AND USE THEREOF” (Betta Pharmaceuticals Co., Ltd., priority 2022, dated 2024).

In data set [1] the test system is AGS. The data set can be described thus: Cell proliferation experiment (CellTiter-Glo). The data set is classed as cell-based. To be noted: read-out: IC50(nM) AGS.
Data set [2] has as its system SW620. The data set can be described thus: Cell proliferation experiment (CellTiter-Glo). It is filed as cell-based. The following applies: read-out: IC50(nM) SW620.
The test system of data set [3] is H358. Kind of data set: Cell proliferation experiment (CellTiter-Glo). It is filed as cell-based. The following applies: Homo sapiens, NCI-H358; H358, KRAS mutation type G12C; 96 h incubation.
The nature of data set [4]: Phase II metabolic stability in liver microsomes (UDPGA). It is filed as in vitro ADME, Human. The following applies: for 60 minutes remaining percentage % Human: 0.5 mg/mL liver microsomes, Alamethicin; for metabolism by UGT in human liver microsomes: 60 min. As to the method: (§1) Example 6 Study on Phase II Metabolic Stability of Compounds in Human, Rat, Mouse, and Dog Liver Microsomes
(§2) Experimental Method: A diluted solution containing 0.5 mg/mL liver microsomes with K-buffer and MgCl2 was prepared: Table 8
(§3) 358 µL of the diluted liver microsome solution prepared in Table 8 above was added to the pre-set wells of the incubation plate, labeled as the incubation plate. 2 µL of compound working solution (400 µM) (final concentration of DMSO ≤ 0.5%) was added. The incubation plate was placed in a 37°C constant temperature shaker and pre-incubated for 5-10 min. Then, 40 µL of UDPGA (20 mM) was added to the incubation plate to initiate the reaction, and timing started. At each predetermined time point (0, 5, 15, 60 min), 50 µL of samples were taken from the incubation plate and added to the precipitation plate containing 200 µL of internal standard. Samples were mixed thoroughly, centrifuged at 4°C and 5000 rpm for 10 minutes. The supernatant after centrifugation was added to pre-added ultrapure water at an appropriate ratio, mixed thoroughly on a shaker at room temperature, and subjected to LC-MS/MS analysis.
(§4) Data processing: The peak areas of the analyte and the internal standard in samples were measured at different time points. The peak area ratio of the analyte to the internal standard at non-zero time points compared to the peak area ratio of the analyte to the internal standard in the 0 min sample was used to calculate the remaining percentage of the parent drug.

Assay in data set [5]: as above
To be noted: 0.5 mg/mL liver microsomes, Alamethicin. The data set is classed as in vitro ADME. As for the experimental part:
as §1, §2, §3, §4

Data set [6] addresses T1, KRAS G12D (Homo sapiens, UniProt P01116, G12D).
Data set [7] can be described thus: in vitro. The following applies: human, microsomes.
The nature of data set [8]: in vitro. The following applies: rat, microsomes.
A short description of data set [9]: in vitro. To be noted: mouse, microsomes.
Data set [10] is described as follows: in vitro. The following applies: dog, microsomes.
The target in data set [11] is T1, KRAS G12D. Kind of data set: cell-based. The following applies: AGS.
Data set [12] is described as follows: PK study in ICR mice (whole blood). The data set is classed as in vivo. The following applies: Female ICR mice, IV 1 mg/kg. As for the experimental part: Example 8 PK Study of Compound in ICR Mice (whole blood)
The compound was mixed with the vehicle (10% DMSO / 5% Solutol HS 15 / 85% saline), vortexed, and sonicated to prepare a clear solution at 0.2 mg/mL. Female ICR mice aged 6 to 7 weeks (non-fasted) were intravenously administered the compound. Whole blood was collected at specified time points. Drug concentration was analyzed by LC-MS/MS, and pharmacokinetic parameters were calculated using Phoenix WinNonlin software (Pharsight Corporation, USA). Table 11 Mouse PK Data for Intravenous Compound Monotherapy

Data set [13] is described as follows: Metabolic stability in liver microsomes (NADPH). The following applies: for The in vitro intrinsic clearance in liver microsomes (CLint, in vitro, µL/min/mg protein) Human: 0.5 mg/mL liver microsomes, NADPH, 37°C.
Data set [14] in a line: Metabolic stability in liver microsomes (NADPH). To be noted: for The in vitro intrinsic clearance in liver microsomes (CLint, in vitro, µL/min/mg protein) Rat: 0.5 mg/mL liver microsomes, NADPH, 37°C.
Data set [15] in a line: Metabolic stability in liver microsomes (NADPH). The following applies: for The in vitro intrinsic clearance in liver microsomes (CLint, in vitro, µL/min/mg protein) Mouse: 0.5 mg/mL liver microsomes, NADPH, 37°C.
The nature of data set [16]: Metabolic stability in liver microsomes (NADPH). The following applies: for The in vitro intrinsic clearance in liver microsomes (CLint, in vitro, µL/min/mg protein) Dog: 0.5 mg/mL liver microsomes, NADPH, 37°C.

Like-named read-outs stand apart in the source and are kept apart here.

In the case of `CCc1c(F)ccc2cc(O)cc(-c3ncc4c(N5CCC[C@@](C)(O)C5)nc(OCC5(CN6CCC(COc7ccc(-c8cn([C@H](C(=O)N9C[C@H](O)C[C@H]9C(=O)N[C@@H](C)c9ccc(-c%10scnc%10C)cc9)C(C)C)nn8)cc7)CC6)CC5)nc4c3F)c12` [Compound 69], the half-inhibitory concentration (IC50) in [1] (Homo sapiens, AGS, 96 h) amounted to 14 nM; in data set [2] (Homo sapiens, SW-620, 96 h), 34 nM; in [3], 42 nM. Also, the “60 minutes remaining percentage % Human” value in [4] amounted to 98.4%. The “metabolism by UGT in human liver microsomes” value in data set [4] is “not metabolized or are minimally metabolized”. In addition, the “60 minutes remaining percentage % Dog” value in data set [5] is on record as 90.6%. For the same molecule, the “60 minutes remaining percentage % Mouse” value in data set [5] is listed as 92%. In data set [5], the “60 minutes remaining percentage % Rat” value is on record as 99%. Also, the DC50 in data set [6] is 0.025 µM. The microsomal CLint stood at 9.8 µL/min/mg in [7], 4.6 µL/min/mg in [8], 7.9 µL/min/mg in data set [9] and 16.4 µL/min/mg in data set [10]. The molecule further came in with a Dmax in data set [11] of 95%.

For `CCc1c(F)ccc2cc(O)cc(-c3ncc4c(N5CCC[C@@](C)(O)C5)nc(OCC5(CN6CCC7(CC6)CC(c6cn([C@H](C(=O)N8C[C@H](O)C[C@H]8C(=O)N[C@@H](C)c8ccc(-c9scnc9C)cc8)C(C)C)nn6)C7)CC5)nc4c3F)c12` [Compound 71], the concentration for half-maximal inhibition (IC50) in data set [1] (Homo sapiens, AGS, 96 h) stood at 18 nM; in [2] (Homo sapiens, SW-620, 96 h), 85 nM; in data set [3], 39 nM. In data set [4], the “60 minutes remaining percentage % Human” value turned out to be 94.6%. Further, the “metabolism by UGT in human liver microsomes” value in [4] is “not metabolized or are minimally metabolized”. In addition, in data set [5], the “60 minutes remaining percentage % Dog” value is 108%. The “60 minutes remaining percentage % Mouse” value in data set [5] was determined as 93%. In data set [5], the “60 minutes remaining percentage % Rat” value was found to be 75.4%. In data set [12], the “Cl_obs” value is 16.3 mL/min/kg. Moreover, the “Vss_obs” value in data set [12] was found to be 1.45 L/kg. For the same molecule, in data set [12] (mouse), the AUC(0-t) came to 1030 ng·h/mL. Also, the half-life in data set [12] (mouse) is 6.08 h. For the same molecule, in data set [12] (mouse, read-out: C0), the C0 amounted to 5560 ng/mL. This molecule registered a DC50 in data set [6] of 0.02 µM. Besides, the microsomal CLint in data set [7] amounted to 5.9 µL/min/mg; in data set [8], 1.1 µL/min/mg; in data set [9], 9.8 µL/min/mg; in data set [10], 6.5 µL/min/mg. The Dmax in data set [11] stood at 95%.

`C=C1CN2[C@H](COCc3ccc(-c4cn([C@H](C(=O)N5C[C@H](O)C[C@H]5C(=O)N[C@@H](C)c5ccc(-c6scnc6C)cc5)C(C)C)nn4)cc3)CC[C@@]2(COc2nc(N3CCC[C@@](C)(O)C3)c3cnc(-c4cc(O)cc5ccc(F)c(CC)c45)c(F)c3n2)C1` [Compound 122]: the half-maximal inhibitory concentration (IC50) in [1] (Homo sapiens, AGS, 96 h) came out at 28 nM; in [2] (Homo sapiens, SW-620, 96 h), 87 nM. Further, in data set [4], the “60 minutes remaining percentage % Human” value is listed as 76.9%. Besides, in data set [5], the “60 minutes remaining percentage % Dog” value worked out at 99.4%. Also, the “60 minutes remaining percentage % Mouse” value in data set [5] is listed as 105%. Also, in data set [5], the “60 minutes remaining percentage % Rat” value is reported as 96.5%. For the same molecule, the DC50 in [6] came to 0.022 µM. The intrinsic clearance (microsomal CLint) was determined as 46.4 µL/min/mg in data set [7], 8.5 µL/min/mg in data set [8], 24.8 µL/min/mg in data set [9] and 53 µL/min/mg in data set [10]. The Dmax in [11] stood at 95%.

For the molecule `C=C1CN2[C@H](COC(=O)N3CCC(Cc4cn([C@H](C(=O)N5C[C@H](O)C[C@H]5C(=O)N[C@@H](C)c5ccc(-c6scnc6C)cc5)C(C)C)nn4)CC3)CC[C@@]2(COc2nc(N3CCC[C@@](C)(O)C3)c3cnc(-c4cc(O)cc5ccc(F)c(CC)c45)c(F)c3n2)C1` [Compound 141, ((3S,7aS)-7a-(((7-(8-ethyl-7-fluoro-3-hydroxynaphthalen-1-yl)-8-fluoro-4-((R)-3-hydroxy-3-methylpiperidin-1-yl)pyrido[4,3-d]pyrimidin-2-yl)oxy)methyl)-6-methylenehexahydro-1H-pyrrolizin-3-yl)methyl 4-((1-((S)-1-((2S,4R)-4-hydroxy-2-(((S)-1-(4-(4-methylthiazol-5-yl)phenyl)ethyl)carbamoyl)pyrrolidin-1-yl)-3-methyl-1-oxobutan-2-yl)-1H-1,2,3-triazol-4-yl)methyl)piperidine-1-carboxylate], the IC50 is 31 nM in data set [1] (Homo sapiens, AGS, 96 h) and 250 nM in data set [2] (Homo sapiens, SW-620, 96 h). Also, the microsomal CLint at 1 µM was 21.2 µL/min/mg in data set [13] (human, liver microsomes); 3.9 µL/min/mg in data set [14] (rat, liver microsomes); 12.1 µL/min/mg in data set [15] (mouse, liver microsomes); 12.9 µL/min/mg in data set [16] (dog, liver microsomes).

In the case of “(2S,4R)-1-((S)-2-(5-(((3S,7aS)-7a-(((7-(8-ethyl-7-fluoro-3-hydroxynaphthalen-1-yl)-8-fluoro-4-( (R)-3-hydroxy-3-methylpiperidin-1-yl)pyrido[4,3-d]pyrimidin-2-yl)oxy)methyl)-6-methylenehex ahydro-1H-pyrrolidin-3-yl)methoxy)methyl)-1H-1,2,3-triazol-1-yl)-3-methylbutanoyl)-4-hydrox y-N-(((S)-1-(4-(4-methylthiazol-5-yl)phenyl)ethyl)pyrrolidine-2-carboxamide [Compound 120]”, in data set [1], the IC50 is 12 nM. Besides, the concentration for half-maximal inhibition (IC50) in data set [2] was 102 nM. In addition, in data set [6], the DC50 was 0.011 µM and the “Dmax (%)” value worked out at 95%. Besides, the “The in vitro intrinsic clearance in liver microsomes (CLint, in vitro, µL/min/mg protein) Human” value in data set [13] stood at 128 µL/min/mg protein. Also, the “The in vitro intrinsic clearance in liver microsomes (CLint, in vitro, µL/min/mg protein) Rat” value in data set [14] is recorded as 9.3 µL/min/mg protein. In [15], the “The in vitro intrinsic clearance in liver microsomes (CLint, in vitro, µL/min/mg protein) Mouse” value is given as 48.5 µL/min/mg protein. Also, the “The in vitro intrinsic clearance in liver microsomes (CLint, in vitro, µL/min/mg protein) Dog” value in data set [16] is recorded as 113 µL/min/mg protein.

Take “((7-(8-ethyl-7-fluoro-3-hydroxynaphthalen-1-yl)-8-fluoro-4-(R)-3-hydroxy-3-methylpiperidin-1-yl)pyrido[4,3-d]pyrimidin-2-yl)oxy)methyl)-6-methylenehexahydro-1H-pyrrolizin-3-yl)methyl 2-(1-(S)-1-(2S,4R)-4-hydroxy-2-(S)-1-(4-(4-methylthiazol-5-yl)phenyl)ethylcarbamoyl)pyrrolidi n-1-yl)-3-methyl-1-oxobutan-2-yl)-1H-1,2,3-triazol-4-yl)-7-azaspiro[3.5]nonane-7-carboxylate [Compound 127]”: the 50% inhibitory concentration (IC50) in data set [1] was found to be 47 nM; in [2], 223 nM. Further, the “The in vitro intrinsic clearance in liver microsomes (CLint, in vitro, µL/min/mg protein) Human” value in data set [13] is listed as 52.8 µL/min/mg protein. Moreover, the “The in vitro intrinsic clearance in liver microsomes (CLint, in vitro, µL/min/mg protein) Rat” value in data set [14] is on record as 15.6 µL/min/mg protein. Besides, the “The in vitro intrinsic clearance in liver microsomes (CLint, in vitro, µL/min/mg protein) Mouse” value in [15] was 42.4 µL/min/mg protein. Further, the “The in vitro intrinsic clearance in liver microsomes (CLint, in vitro, µL/min/mg protein) Dog” value in data set [16] is on record as 31.5 µL/min/mg protein.
